Experimental data published in patent publication US7312031B1, “Alpha-complementation viral fusion assay” (The Salk Institute for Biological Studies, priority 2002, dated 2007).

Tests used:
[1] = tested on: fusion of 293T.CD4.Ω with 293T/SF33; assay: alpha-complementation fusion assay, 293T.CD4.Ω with 293T/SF33; format: cell-based, human; conditions: FIG. 5 and 6; SF33 Env (CXCR4-specific); 293T.CD4.Ω stable line
Protocol: Remove the plates from the water bath, spin 4000 rpm (Eppendorf tabletop centrifuge) for 1 minute to firmly pellet cells, aspirate medium, and add 100 μl of Galacto-Star lysis buffer (Perkin-Elmer). Mix well and incubate at room temperature for 5 minutes. Spin lysates 5 minutes at 4000 rpm and transfer 10 μl to a black 96-well plate (Costar). Add 100 μl of Galacto-Star substrate using a multi-channel pipettor. After 60 minutes, read β-gal activity in plates in a Packard TopCount luminometer for 15 s/well.
Transfect 293 cells with expression vector for HIV envelope protein, B-gal-α and HIV-1 Rev. Vectors used express CCR5-specific Envs (JFRL, ADA) or CXCR4-specific Envs (SF33 or JC2) driven by the cytomegalovirus promoter. Transfect the cells by lipofection or calcium phosphate standard methods.
Harvest 293-CD4.CCR5.omega cells with PBS/EDTA and count.
Prepare a microtiter plate by adding 2.5×10^5 293-CD4.CCR5.omega cells to each well with a multi-channel pipettor or robot in a volume of 50 μl of medium. Add inhibitors at different concentrations to each of the wells, in duplicate. […]

[2] = tested on: fusion of 293T.CD4.Ω/CCR5 with 293T/ADA; assay: alpha-complementation fusion assay, 293T.CD4.Ω/CCR5 with 293T/ADA; format: cell-based, human; conditions: FIG. 7-9, ADA Env (CCR5-specific)
Protocol: FIG. 7 depicts the fusion of 293T.CD4.Ω/CCR5 with 293T/ADA in the presence of TAK-779.
293T (ATCC cat #CRL-1573) or HeLa (ATCC cat #CCL-2) cells (2.5×10^6) were seeded in 10 cm plates 24 hours prior to transfection. The next morning, cells were transfected with 21 μg of DNA, 7 μg pSCTZ-alpha-N85, 7 μg pRSV-Rev (Hope et al., Proc. Nat'l. Acad. Sci. U.S.A. 87: 7787-91 (1990)) and 7 μg of envelope expression vector (pSV-ADA, pSV-JRFL (Deng et al., Nature 381: 661-666 (1996)), or pCAGGS-SF33 (York-Higgins et al., J. Virol. 64: 4016-4020 (1990)). […]
Remove the plates from the water bath, spin 4000 rpm (Eppendorf tabletop centrifuge) for 1 minute to firmly pellet cells, aspirate medium, and add 100 μl of Galacto-Star lysis buffer (Perkin-Elmer). […] After 60 minutes, read β-gal activity in plates in a Packard TopCount luminometer for 15 s/well. […]
Two days later, remove the transfected cells from plates by incubating with phosphate-buffered saline containing 5 mM EDTA. The cells are then counted on hemocytometer. […]
After four hours, read β-gal activity as in Example 1.

Row | Compound | inhibition of fusion reaction [1] | inhibition of fusion reaction [2]
1 | c1cc(CN2CCCNCCNCCCNCC2)ccc1CN1CCCNCCNCCCNCC1 [AMD3100] | inhibits the fusion reaction in a concentration-dependent manner | –
2 | Cc1ccc(-c2ccc3c(c2)C=C(C(=O)Nc2ccc(C[N+](C)(C)C4CCOCC4)cc2)CCC3)cc1.[Cl-] [TAK-779] | – | inhibits the fusion reaction in a concentration-dependent manner
